# Patent US20240423961A1, “1H-1,2,3-TRIAZOLE-4-CARBOXYLIC ACIDS FOR TREATMENT OF HYPEROXALURIA AND KIDNEY STONES” (CANTERO THERAPEUTICS, INC., priority 2021, published 2024)
# Where two headings read alike, the source gives them in different places.
# Experiment: Phase 1 SAD/MAD study: plasma pharmacokinetics of Compound 1a (LC-MS-MS, noncompartmental analysis)
# Format: in vivo, human
# Settings: for Cmax / Tmax / half-life / AUC(0-t) / Cmax at 7 days / Tmax at 7 days / AUC(0-inf): human, plasma; for Cmax at 7 days: read-out: Day 7 Cmax; for Tmax at 7 days: read-out: Day 7 Tmax
# Experimental: Pharmacokinetics: Human K2-ethylenediaminetetraacetic acid (K2-EDTA) plasma samples were analyzed for Compound 1a by a validated method over a range of 1.0 to 1000 ng/mL based on the analysis of 100 μL of sample. Human plasma containing Compound 1a and the internal standard, Compound 1a-D4, was extracted using liquid-liquid extraction and analyzed by a Sciex API 4000 LC-MS-MS equipped with an HPLC column. The peak area of the m/z 370.2→298.0 Compound 1a product ion was measured against the peak area of the m/z 374.3→302.4 Compound 1a-D4 internal standard product ion. Quantitation was performed using a weighted 1/x^2 linear least squares regression analysis generated from calibration standards prepared on the day of extraction.
# Pharmacokinetic analysis: Pharmacokinetic calculations based on Compound 1a plasma concentrations were performed using noncompartmental analysis in Phoenix WinNonlin (Certara, Princeton, New Jersey). […] Accumulation ratio based on Cmax was calculated as (Cmax,day 7)/(Cmax, day 1).
# Subject disposition: Six cohorts of 6 to 8 subjects each (N=up to 48) were administered single doses of 40, 120, 360, 1,000, 2,000, and 3,000 mg of Compound 1a in Part A under fasting conditions. Following a 2-week washout, subjects in the 1,000 mg cohort were administered a second 1,000 mg single dose following a high-fat breakfast. Six cohorts of 8 healthy subjects each were administered multiple doses of 75 mg […] (qd), 125 mg every 12 hours (q12 h), 500 mg q12 h, 500 mg qd, 750 mg qd, and 1,000 mg qd for 7 days in the MAD Part B (FIG. 1).
# [1] = oral, 75 mg, MAD 75 mg qd for 7 days, average
# [2] = oral, 125 mg, MAD 125 mg q12h for 7 days, average
# [3] = oral, 500 mg, MAD 500 mg q12h for 7 days, average
# [4] = oral, 500 mg, MAD 500 mg qd for 7 days, average
# [5] = oral, 750 mg, MAD 750 mg qd for 7 days, average
# [6] = oral, 1000 mg, MAD 1000 mg qd for 7 days, average
# [7] = po, 40 mg, SAD 40 mg oral, fasted, average
# [8] = po, 120 mg, SAD 120 mg oral, fasted, average
# [9] = po, 360 mg, SAD 360 mg oral, fasted, average
# [10] = po, 1000 mg, SAD 1,000 mg oral, fasted, average
# [11] = po, 1000 mg, SAD 1,000 mg oral, fed, average
# [12] = po, 2000 mg, SAD 2,000 mg oral, fasted, average
# [13] = po, 3000 mg, SAD 3,000 mg oral, fasted, average
structure (smiles),measurement,setting,value
"O.O=C([O-])c1nn[nH]c1Oc1ccc(-c2ccc(C3CC(F)(F)C3)cc2)cc1.[Na+] [Compound 1a, sodium 5-((4′-(3,3-difluorocyclobutyl)-[1,1′-biphenyl]-4-yl)oxy)-1H-1,2,3-triazole-4-carboxylate monohydrate]",Cmax,"oral, 40 mg, single dose 40 mg, healthy volunteers, geometric mean",2040 ng/mL
same,Tmax,"oral, 40 mg, single dose 40 mg, healthy volunteers, geometric mean (geometric CV %), read-out: Tmax",1.9 h
same,half-life,"oral, 40 mg, single dose 40 mg, healthy volunteers, geometric mean (geometric CV %), read-out: t1/2 (converted)",25 h
same,AUC(0-t),"oral, 40 mg, single dose 40 mg, healthy volunteers, geometric mean, read-out: AUClast",13.9 µg·h/mL
same,AUC(0-t),"oral, 75 mg, MAD 75 mg qd for 7 days, average, read-out: Day 7 AUC0-24",23.9 µg·h/mL
same,Cmax at 7 days,[1],3420 ng/mL
same,Tmax at 7 days,[1],2.45 h
same,Cmax,"oral, 120 mg, single dose 120 mg, healthy volunteers, geometric mean",5020 ng/mL
same,Tmax,"oral, 120 mg, single dose 120 mg, healthy volunteers, geometric mean (geometric CV %), read-out: Tmax",2.3 h
same,half-life,"oral, 120 mg, single dose 120 mg, healthy volunteers, geometric mean (geometric CV %), read-out: t1/2 (converted)",22 h
same,AUC(0-t),"oral, 120 mg, single dose 120 mg, healthy volunteers, geometric mean, read-out: AUClast",41 µg·h/mL
same,AUC(0-t),"oral, 125 mg, MAD 125 mg q12h for 7 days, average, read-out: Day 7 AUC0-12",45.6 µg·h/mL
same,Cmax at 7 days,[2],6450 ng/mL
same,Tmax at 7 days,[2],2.04 h
same,Cmax,"oral, 360 mg, single dose 360 mg, healthy volunteers, geometric mean",10500 ng/mL
same,Tmax,"oral, 360 mg, single dose 360 mg, healthy volunteers, geometric mean (geometric CV %), read-out: Tmax",2.3 h
same,half-life,"oral, 360 mg, single dose 360 mg, healthy volunteers, geometric mean (geometric CV %), read-out: t1/2 (converted)",26 h
same,AUC(0-t),"oral, 360 mg, single dose 360 mg, healthy volunteers, geometric mean, read-out: AUClast",83.2 µg·h/mL
same,AUC(0-t),"oral, 500 mg, MAD 500 mg q12h for 7 days, average, read-out: Day 7 AUC0-12",342 µg·h/mL
same,Cmax at 7 days,[3],43800 ng/mL
same,Tmax at 7 days,[3],1.44 h
same,AUC(0-t),"oral, 500 mg, MAD 500 mg qd for 7 days, average, read-out: Day 7 AUC0-24",133 µg·h/mL
same,Cmax at 7 days,[4],17000 ng/mL
same,Tmax at 7 days,[4],2.35 h
same,AUC(0-t),"oral, 750 mg, MAD 750 mg qd for 7 days, average, read-out: Day 7 AUC0-24",214 µg·h/mL
same,Cmax at 7 days,[5],24300 ng/mL
same,Tmax at 7 days,[5],2.62 h
same,AUC(0-t),"oral, 1000 mg, MAD 1000 mg qd for 7 days, average, read-out: Day 7 AUC0-24",303 µg·h/mL
same,Cmax at 7 days,[6],29900 ng/mL
same,Tmax at 7 days,[6],2.18 h
same,Cmax,"oral, 1000 mg, single dose 1000 mg, healthy volunteers, geometric mean",17200 ng/mL
same,Tmax,"oral, 1000 mg, single dose 1000 mg, healthy volunteers, geometric mean (geometric CV %), read-out: Tmax",2.5 h
same,half-life,"oral, 1000 mg, single dose 1000 mg, healthy volunteers, geometric mean (geometric CV %), read-out: t1/2 (converted)",28 h
same,AUC(0-t),"oral, 1000 mg, single dose 1000 mg, healthy volunteers, geometric mean, read-out: AUClast",184 µg·h/mL
same,Tmax,"oral, 1000 mg, single dose of 1,000 mg, fasted, read-out: average Tmax",3 h
same,half-life,"oral, 1000 mg, single dose of 1,000 mg, fasted, read-out: t1/2 (converted)",~26.8 h
same,Tmax,"oral, 1000 mg, single dose of 1,000 mg, fed, read-out: average Tmax",5.9 h
same,half-life,"oral, 1000 mg, single dose of 1,000 mg, fed, read-out: t1/2 (converted)",~25.2 h
same,Cmax,"oral, 2000 mg, single dose 2000 mg, healthy volunteers, geometric mean",25600 ng/mL
same,Tmax,"oral, 2000 mg, single dose 2000 mg, healthy volunteers, geometric mean (geometric CV %), read-out: Tmax",2.9 h
same,half-life,"oral, 2000 mg, single dose 2000 mg, healthy volunteers, geometric mean (geometric CV %), read-out: t1/2 (converted)",23 h
same,AUC(0-t),"oral, 2000 mg, single dose 2000 mg, healthy volunteers, geometric mean, read-out: AUClast",312 µg·h/mL
same,Cmax,"oral, 3000 mg, single dose 3000 mg, healthy volunteers, geometric mean",22500 ng/mL
same,Tmax,"oral, 3000 mg, single dose 3000 mg, healthy volunteers, geometric mean (geometric CV %), read-out: Tmax",2.9 h
same,half-life,"oral, 3000 mg, single dose 3000 mg, healthy volunteers, geometric mean (geometric CV %), read-out: t1/2 (converted)",34 h
same,AUC(0-t),"oral, 3000 mg, single dose 3000 mg, healthy volunteers, geometric mean, read-out: AUClast",225 µg·h/mL
same,Tmax,"oral, single-dose administration of 40 mg to 3,000 mg, read-out: average plasma Tmax values across dose levels",1.9 to 2.9 h
same,half-life,"oral, single-dose administration of 40 mg to 3,000 mg, read-out: average t1/2 across dose levels",21.9 to 33.7 h
same,AUC(0-inf),[7],14 µg·h/mL
same,Cmax,[7],2040 ng/mL
same,AUC(0-t),"po, 40 mg, SAD 40 mg oral, fasted, average, read-out: AUC0-24",12.1 µg·h/mL
same,Tmax,"po, 40 mg, SAD 40 mg oral, fasted, average, read-out: Tmax",1.89 h
same,half-life,"po, 40 mg, SAD 40 mg oral, fasted, average, read-out: t1/2 (converted)",24.6 h
same,AUC(0-inf),[8],41.4 µg·h/mL
same,Cmax,[8],5020 ng/mL
same,half-life,"po, 120 mg, SAD 120 mg oral, fasted, average, plasma (N = 5), read-out: t1/2 (converted)",21.9 h
same,AUC(0-t),"po, 120 mg, SAD 120 mg oral, fasted, average, read-out: AUC0-24",36.7 µg·h/mL
same,Tmax,"po, 120 mg, SAD 120 mg oral, fasted, average, read-out: Tmax",2.29 h
same,AUC(0-inf),[9],83.3 µg·h/mL
same,Cmax,[9],10500 ng/mL
same,AUC(0-t),"po, 360 mg, SAD 360 mg oral, fasted, average, read-out: AUC0-24",74.1 µg·h/mL
same,Tmax,"po, 360 mg, SAD 360 mg oral, fasted, average, read-out: Tmax",2.28 h
same,half-life,"po, 360 mg, SAD 360 mg oral, fasted, average, read-out: t1/2 (converted)",25.9 h
same,AUC(0-inf),[10],214 µg·h/mL
same,Cmax,[10],19500 ng/mL
same,AUC(0-t),"po, 1000 mg, SAD 1,000 mg oral, fasted, average, read-out: AUC0-24",174 µg·h/mL
same,Tmax,"po, 1000 mg, SAD 1,000 mg oral, fasted, average, read-out: Tmax",3 h
same,half-life,"po, 1000 mg, SAD 1,000 mg oral, fasted, average, read-out: t1/2 (converted)",26.8 h
same,AUC(0-inf),[11],237 µg·h/mL
same,Cmax,[11],14700 ng/mL
same,AUC(0-t),"po, 1000 mg, SAD 1,000 mg oral, fed, average, read-out: AUC0-24",180 µg·h/mL
same,Tmax,"po, 1000 mg, SAD 1,000 mg oral, fed, average, read-out: Tmax",5.86 h
same,half-life,"po, 1000 mg, SAD 1,000 mg oral, fed, average, read-out: t1/2 (converted)",25.2 h
same,AUC(0-inf),[12],312 µg·h/mL
same,Cmax,[12],25600 ng/mL
same,AUC(0-t),"po, 2000 mg, SAD 2,000 mg oral, fasted, average, read-out: AUC0-24",253 µg·h/mL
same,Tmax,"po, 2000 mg, SAD 2,000 mg oral, fasted, average, read-out: Tmax",2.94 h
same,half-life,"po, 2000 mg, SAD 2,000 mg oral, fasted, average, read-out: t1/2 (converted)",23.4 h
same,AUC(0-inf),[13],226 µg·h/mL
same,Cmax,[13],22500 ng/mL
same,AUC(0-t),"po, 3000 mg, SAD 3,000 mg oral, fasted, average, read-out: AUC0-24",184 µg·h/mL
same,Tmax,"po, 3000 mg, SAD 3,000 mg oral, fasted, average, read-out: Tmax",2.94 h
same,half-life,"po, 3000 mg, SAD 3,000 mg oral, fasted, average, read-out: t1/2 (converted)",33.7 h
same,"Overall exposure, fed versus fasted (food effect)","single dose of 1,000 mg, same cohort, 2-week washout",slightly lower under fed than under fasted conditions
